Test systems include A549 NSCLC; COLO 205 colon; HL-60(TB) leukemia; IGROV1 ovarian; OVCAR-3 ovarian; OVCAR-4 ovarian; SK-MEL-2 melanoma; U251 CNS.
Holding throughout (experiment): growth of human tumour cells (NCI), 48 h

Molecules are shown by their SMILES. Several values for one entry are separate records, joined by “and”; a condition that tells them apart may be missing. Equal values may be shown once.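 How tested: cells in 96-well plates exposed to compound for 48 hours at five concentrations. GI50 is the concentration that inhibits growth by half. TGI: total growth inhibition.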

As for `COC(=O)c1c2c(c[n+]([O-])c1C)C(=O)C(NCc1ccccc1)=CC2=O`, the GI50 was 1120 nM in the test with A549 NSCLC; 312 nM in the test with COLO 205 colon; 256 nM with HL-60(TB) leukemia; 368 nM in the test on IGROV1 ovarian; 256 nM in the test on OVCAR-3 ovarian; 232 nM in the test with OVCAR-4 ovarian. The figures for the GI50 in the test on SK-MEL-2 melanoma and in the test with U251 CNS were 1190 nM and 510 nM, respectively. Moreover, the TGI amounted to 3610 nM with A549 NSCLC; 984 nM in the test on COLO 205 colon; 667 nM in the test on HL-60(TB) leukemia; 1490 nM in the test with IGROV1 ovarian; 796 nM in the test with OVCAR-3 ovarian; 835 nM with OVCAR-4 ovarian. In addition, the figures for the TGI in the test with SK-MEL-2 melanoma and in the test on U251 CNS were 3350 nM and 1890 nM, respectively.

`COc1cc2c3c(n(CCCN=[N+]=[N-])c(=O)c2cc1OC)-c1ccc(N)cc1C3=O`: the GI50 with A549 NSCLC was 374 nM; in the test on COLO 205 colon it was 400 nM; with HL-60(TB) leukemia, 102 nM; in the test with IGROV1 ovarian, 153 nM; with OVCAR-3 ovarian, 249 nM; with OVCAR-4 ovarian, 608 nM. For the same molecule, the results for the GI50 in the test on SK-MEL-2 melanoma and in the test on U251 CNS were 622 nM and 83.2 nM, respectively. Moreover, the TGI with A549 NSCLC was 2340 nM; in the test with COLO 205 colon it was 1230 nM; in the test with HL-60(TB) leukemia, 1020 nM; in the test with IGROV1 ovarian, 637 nM; in the test on OVCAR-3 ovarian, 923 nM; in the test on OVCAR-4 ovarian, 2590 nM. For the same molecule, the figures for the TGI with SK-MEL-2 melanoma and in the test on U251 CNS were 1550 nM and 766 nM, respectively.

Turning to `COc1ccc(S(=O)(=O)Nc2cc(/C=C\c3cc(OC)c(OC)c(OC)c3)cc(OC)c2OC)cc1OC`, the GI50 in the test with A549 NSCLC is 1310 nM; in the test with COLO 205 colon, 1280 nM; with HL-60(TB) leukemia it was 370 nM; in the test with IGROV1 ovarian, 4580 nM; in the test on OVCAR-3 ovarian, 418 nM; in the test on OVCAR-4 ovarian, 3120 nM. The figures for the GI50 in the test with SK-MEL-2 melanoma and in the test with U251 CNS were 5290 nM and 681 nM, respectively. In addition, the TGI in the test on A549 NSCLC, in the test on COLO 205 colon, with HL-60(TB) leukemia, with IGROV1 ovarian, in the test on OVCAR-3 ovarian and in the test on OVCAR-4 ovarian was above 100000 nM throughout. The TGI in the test on SK-MEL-2 melanoma and with U251 CNS was above 100000 nM throughout.

In the case of `Cn1c(=O)c(Sc2ccccc2F)cc2cnc(NC3CCOCC3)nc21`, the GI50 with A549 NSCLC, with COLO 205 colon, in the test on HL-60(TB) leukemia, in the test on IGROV1 ovarian, with OVCAR-3 ovarian and in the test with OVCAR-4 ovarian was above 25000 nM in each case. Also, the GI50 in the test with SK-MEL-2 melanoma and with U251 CNS was above 25000 nM throughout. The TGI with A549 NSCLC, with COLO 205 colon, in the test with HL-60(TB) leukemia, with IGROV1 ovarian, in the test on OVCAR-3 ovarian and in the test on OVCAR-4 ovarian was above 25000 nM throughout. For the same molecule, the TGI in the test on SK-MEL-2 melanoma and with U251 CNS was above 25000 nM throughout.

As for `COc1c(Nc2ncc(Cl)c(N[C@@H]3[C@H]4C=CC(C4)[C@@H]3C(N)=O)n2)ccc2c1CC[C@@H](N1CCOCC1)CC2`, the GI50 is 4020 nM in the test with A549 NSCLC; 1740 nM with COLO 205 colon; 4860 nM with HL-60(TB) leukemia; 5300 nM in the test with IGROV1 ovarian; 7060 nM with OVCAR-3 ovarian; 3680 nM in the test on OVCAR-4 ovarian. In addition, the GI50 was 3390 nM in the test on SK-MEL-2 melanoma and 3200 nM in the test with U251 CNS. Also, the TGI with A549 NSCLC turned out to be 17500 nM; in the test on COLO 205 colon it was 5500 nM; in the test with HL-60(TB) leukemia, 20600 nM; in the test with IGROV1 ovarian, 35800 nM; in the test on OVCAR-3 ovarian, 24500 nM; in the test with OVCAR-4 ovarian, 23000 nM. For the same molecule, the figures for the TGI in the test on SK-MEL-2 melanoma and in the test on U251 CNS were 11900 nM and 15700 nM, respectively.

`COc1cccc(C2=NN(C(C)=O)C(c3cc(OC)c(OC)c(OC)c3)C2)c1` (configuration not stated): the GI50 with A549 NSCLC is 6150 nM; in the test with COLO 205 colon, 3350 nM; in the test on HL-60(TB) leukemia, 1550 nM; in the test with IGROV1 ovarian it was 4080 nM; with OVCAR-3 ovarian, 1090 nM; in the test with OVCAR-4 ovarian, 6880 nM. In addition, the GI50 with SK-MEL-2 melanoma was 23800 nM; with U251 CNS it was 3370 nM. The TGI with A549 NSCLC is above 100000 nM; in the test with COLO 205 colon, 12300 nM; with HL-60(TB) leukemia it was 6510 nM; in the test on IGROV1 ovarian it was above 72100 nM; in the test on OVCAR-3 ovarian it was 3800 nM; in the test with OVCAR-4 ovarian, above 100000 nM. Further, the TGI in the test with SK-MEL-2 melanoma and in the test with U251 CNS was above 100000 nM throughout.

Regarding `CCN(CC)CCC(CNc1c2ccc([N+](=O)[O-])cc2nc2cc(OC)c(OC)cc12)c1ccccc1` (configuration not stated), the GI50 in the test with A549 NSCLC is 177 nM and 132 nM; in the test on COLO 205 colon, 152 nM and 89.5 nM; in the test with HL-60(TB) leukemia, 1820 nM and 2400 nM; in the test with IGROV1 ovarian it was 405 nM and 290 nM; in the test on OVCAR-3 ovarian it was 269 nM and 92.7 nM; in the test with OVCAR-4 ovarian it was 271 nM and 228 nM. Besides, the GI50 was 229 nM and 81.6 nM with SK-MEL-2 melanoma; 294 nM and 203 nM in the test with U251 CNS. Besides, the TGI in the test on A549 NSCLC is 401 nM and 541 nM; in the test with COLO 205 colon it was 448 nM and 299 nM; in the test with HL-60(TB) leukemia it was 3880 nM and 5120 nM; in the test on IGROV1 ovarian, 1660 nM and 1020 nM; in the test on OVCAR-3 ovarian, 1010 nM and 335 nM; with OVCAR-4 ovarian, 1030 nM and 863 nM. For the same molecule, the TGI is 609 nM and 253 nM in the test with SK-MEL-2 melanoma; 1130 nM and 1220 nM with U251 CNS.

For the origin of these results see PubChem BioAssay (NCI).
